Patent US20070149406A1, “Plant growth regulation” (Bayer CropScience GmbH, priority 2003, published 2007)

Columns and labels:
[1] = system: maize (Zea mays, variety “LORENZO”); experiment: Root growth assay, maize; assay type: in vivo; conditions: for Root Growth: wet root weight 16 days post treatment, Root Growth of 100 set as the standard
From the text: (§1) Plant roots are a highly proliferative tissue that allows an easy accessible, cheap and short term screening method for plant growth regulators. The results obtained can easily be transferred to the overall effects on a plant of plant growth regulators identified by such a system. By using this root assay one is enabled to determine the effect of a seed treatment to root growth and/or germination and/or changes in habitat of germinated plants in order to identify the possible use as a yield enhancer. Two seeds of wheat (Triticum aestivum, variety “TRISO”) or 1 seed of maize (Zea mays, variety “LORENZO”) per hole in a plastic tray which contains an architecture of 8×13 holes were placed on compost soil covered with sand. These seeds were treated with 100 μl/ hole, which creates an application volume of approx. 1200 I/ha, of a compound solution at active ingredient rates equivalent to 100, 10 and 1 g a.i./ha of each compound using an robotic application system (Lizzy Spray Robotics). Six replicates in a row of each compound and concentration were done. The outer rim of the above defined plastic tray was untreated to avoid false negative effects and the middle row (No. 7) was used as untreated control. The treated seeds were allowed to dry for approx. 4 hours and subsequently covered with sand and watered. The trays were stored in climate chambers with 14 hours lighting at a temperature of 24° C. (±2) at daytime and 16° C. (±2) at night and relative humidity (rH) of 60% and daily watered. Assessments were done 16 (±2) days post treatment by counting the germinated plants and assessing the phytotoxicity symptoms and percentage. In addition, the roots were washed out and the shoots were cut directly above the seed and the wet roots were placed on dry paper towels for approximately 30 minutes and weighted afterwards. This procedure provides a similar grade of moisture to the roots so that a comparison of the weights is possible. […] The effects observed concerning Root Growth given in column 2 (Root Growth of “100” is set as the standard) are directed to concentrations that are equivalent to 100, 10, 1 g a.i./ha, each.

[2] = system: wheat (Triticum aestivum, variety “TRISO”); experiment: Root growth assay, wheat; assay type: in vivo; conditions: for Root Growth: wet root weight 16 days post treatment, Root Growth of 100 set as the standard
From the text: as §1

[3] = system: maize hybrid Magister and Zamora; experiment: Field trial, seed-treated maize, grain yield; assay type: in vivo; conditions: seed treatment 1 g/100 kg seeds (0.0003 kg/ha)
From the text: Maize seeds of maize hybrid Magister and Zamora were seed treated with compound 1.136 at 1 g/100 kg seeds (0.0003 kg/ha). Field trials were set up in a split plot design representing the plants treated with compounds of formula (I) as well as the non-treated control plants.

| SMILES | effect as plant growth regulator in maize (in words) [1] | Root Growth ([1]; 1 g a.i./ha) | Root Growth ([1]; 10 g a.i./ha) | Root Growth ([1]; 100 g a.i./ha) | effect as plant growth regulator in wheat (in words) [2] | Root Growth ([2]; 1 g a.i./ha) | Root Growth ([2]; 10 g a.i./ha) | Root Growth ([2]; 100 g a.i./ha) | melting point [°C] | increase in grain yield compared to non-treated control plants ([3]; maize hybrid Magister) | increase in grain yield compared to non-treated control plants ([3]; maize hybrid Zamora) |
| --- | --- | --- | --- | --- | --- | --- | --- | --- | --- | --- | --- |
| CCCCCNC(=O)c1nn(-c2c(Cl)cc(C(F)(F)F)cc2Cl)c(N)c1[S+]([O-])C(F)(F)F (stereo not shown) [Compound 1.141] | remarkable effect | 111 | 102 | 95 | superior effect | 257 | 160 | 256 | – | – | – |
| CCOc1c(SC(F)(F)F)c(C(N)=O)nn1-c1c(Cl)cc(C(F)(F)F)cc1Cl [Compound 3.3, 1-(2,6-Dichloro-4-trifluoromethylphenyl)-5-ethoxy-4-trifluoromethylthio-1H-pyrazole-3-carboxylic acid amide] | – | – | – | – | – | – | – | – | 161 | – | – |
| Nc1c(SC(F)(F)F)c(C(=O)O)nn1-c1c(Cl)cc(C(F)(F)F)cc1Cl [Compound 2.10, 5-Amino-1-(2,6-dichloro-4-trifluoromethylphenyl)-4-trifluoromethylthio-1H-pyrazole-3-carboxylic acid] | – | – | – | – | – | 158 | 118 | 134 | – | – | – |
| NC(=O)c1nn(-c2c(Cl)cc(C(F)(F)F)cc2Cl)c(N)c1[S+]([O-])C(F)(F)F (stereo not shown) [Compound 1.136] | significant effects of approximately the same size | 107 | 131 | 74 | significant effects of approximately the same size | 124 | 75 | 58 | – | up to 119% | up to 131% |
| Nc1c([S+]([O-])C(F)(F)F)c(C(=O)NCC2CCCO2)nn1-c1c(Cl)cc(C(F)(F)F)cc1Cl (stereo not shown) [Compound 1.144] | – | – | – | – | – | 170 | 115 | 110 | – | – | – |
| CNc1c([S+]([O-])C(F)(F)F)c(C(=O)N(C)C)nn1-c1c(Cl)cc(C(F)(F)F)cc1Cl (stereo not shown) [Compound 1.228] | – | 72 | 111 | 186 | – | – | – | – | – | – | – |
